What was measured:
[1] = target: T1, YTHDF2-bound mRNAs (PEG10, NOTCH2, CREBBP) in PC-3 cells (Homo sapiens, UniProt Q9Y5A9); assay: Ribonucleoprotein immunoprecipitation (RIP) followed by qRT-PCR; format: cell-based; conditions: 25 μM, 24 h, versus DMSO
T1 construct: endogenous in cells; host or cells: PC-3
T1 sequence (Q9Y5A9 1-579): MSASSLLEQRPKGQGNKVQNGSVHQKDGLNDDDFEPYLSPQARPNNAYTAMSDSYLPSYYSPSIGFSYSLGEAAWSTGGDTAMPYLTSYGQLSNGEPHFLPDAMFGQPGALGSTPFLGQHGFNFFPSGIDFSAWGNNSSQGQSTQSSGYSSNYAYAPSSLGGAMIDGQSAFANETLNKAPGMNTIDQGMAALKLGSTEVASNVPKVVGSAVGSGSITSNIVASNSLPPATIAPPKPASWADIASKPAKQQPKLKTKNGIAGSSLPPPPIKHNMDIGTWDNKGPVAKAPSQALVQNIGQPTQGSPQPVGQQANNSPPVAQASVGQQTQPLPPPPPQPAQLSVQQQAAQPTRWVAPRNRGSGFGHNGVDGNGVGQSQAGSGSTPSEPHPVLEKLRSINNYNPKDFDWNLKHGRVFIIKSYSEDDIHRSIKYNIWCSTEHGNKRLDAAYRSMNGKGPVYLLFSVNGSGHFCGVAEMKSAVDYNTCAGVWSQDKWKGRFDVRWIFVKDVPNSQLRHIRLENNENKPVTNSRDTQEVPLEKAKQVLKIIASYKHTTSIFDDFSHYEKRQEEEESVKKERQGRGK
Protocol: Five million cells were used for each RIP experiment followed by qRT-PCR,[65] without cross-linking steps and using 1–15 μg of the YTHDF2 antibody (Proteintech, 24744-1-AP) or the same amount of the rabbit normal IgG isotype (negative control, Cell Signaling, 2729S). Cells were harvested after 24 h of treatment with 25 μM ebselen and DMSO as the control, lysed with 20 mM Tris–HCl at pH 7.5, 100 mM KCl, 5 mM MgCl2, and 0.5% NP-40 for 10 min on ice, and centrifuged at 15,000g for 10 min at 4 °C. Lysates were then incubated with Dynabead A/G (Thermo Fisher, 10001D/10003D) for pre-clearing for 1 h at 4 °C and then with Dynabeads A/G (80/20 ratio) at RT for 1 h with YTHDF2 or rabbit isotype IgG for Ab coating. After the pre-clearing steps and the coating, lysates were split between YTHDF2 and IgG-coated beads, while 1–5% of the lysate was stored as the input and incubated O/N at 4 °C. Finally, samples were washed with NT2 buffer for five times, 5 min each at 4 °C. […] For each condition, the ΔCt value of IgG and YTHDF2 was evaluated in triplicate. Normalization of the values was then carried out following the percent input method, in which values from IgG and YTHDF2 IP were calculated as % input of the adjusted input values. […] YTHDF2 and IgG fractions were calculated as % input by subtracting to the adjusted input values their ΔCt values. […]

[2] = tested on: m6A levels in poly(A) purified mRNA of PC-3 cells; assay: m6A level by 2D thin-layer chromatography; format: cell-based, human; conditions: 24 h time frame
Protocol: 100 ng of the poly(A) purified RNA was used as the input. Processed samples were analyzed on glass-backed PEI-cellulose plates (MerckMillipore) as described previously. Plates were exposed to a storage phosphor screen below saturation and processed on a Typhoon NIR laser scanner (Cytiva). Quantification of individual nucleotides was done with ImageJ. The relative amount of m6A was calculated as a percent of the total A (sum of both A and m6A spot intensity).

YTHDF1 domain = target: T2, YTHDF1 domain (Homo sapiens, UniProt Q9BYJ9); assay: Dynamic mass redistribution (DMR), label-free; conditions: immobilized YTHDF1 domain, binding at equilibrium
T2 construct: The human YTHDF1 YTH domain (amino acids 365–554, PDB: 4RCJ); host or cells: E. coli BL21(DE3)
T2 sequence (Q9BYJ9 365-554): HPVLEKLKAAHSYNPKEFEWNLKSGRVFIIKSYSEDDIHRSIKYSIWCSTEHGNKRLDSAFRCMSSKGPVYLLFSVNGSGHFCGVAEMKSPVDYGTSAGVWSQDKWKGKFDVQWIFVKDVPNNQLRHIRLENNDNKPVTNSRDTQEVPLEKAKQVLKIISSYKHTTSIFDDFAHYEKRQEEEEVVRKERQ
Protocol: The protein was immobilized in a final volume of 15 μL/well of a 50 μg/mL solution in 20 mM sodium acetate buffer, pH 6, onto the surface of label-free microplates by amine-coupling chemistry. Different concentrations of ebselen (300 nM to 50 μM) were added to the plate and the mass of the molecular complex was measured every minute for 1 h. […]
probe with the YTH domain of YTHDF1 calculated with the DMR. rYTH was immobilized to the wells with amino-coupled chemistry and different concentrations of RNA were added to the plate.
Measurements were performed before adding the RNA, in order to define a baseline, and after the addition. Final response (pm) was obtained by subtracting to the last measurement the baseline.
Signal for each well was obtained by subtracting the signal of a reference area with the protein coated to an uncoated one. Data were fitted according to a four-parameter nonlinear regression […]
(1 picture or pasted object on this page, not shown here)

For `O=c1c2ccccc2[se]n1-c1ccccc1` [Compound 1, 2-phenyl-1,2-benzisoselenazol-3(2H)-one], the “YTHDF2-bound target mRNA levels (RIP, in words)” value [1] was “decrease of the mRNA levels compared to control samples”, the “Overall m6A methylation level (in words)” value [2] was “no significant changes” and the EC50 (YTHDF1 domain) was 3.22 µM.

Reference: paper PMC9578143, “Small-Molecule Ebselen Binds to YTHDF Proteins Interfering with the Recognition of N^6-Methyladenosine-Modified RNAs” (ACS Pharmacology & Translational Science, 2022)
